Laboratory results from the supplement of paper PMC9912026.

Test system: A375_NRAS_Q61K_DOXind
Experiment: pERK immunofluorescence relative to uninduced (no doxycycline), no-drug control; higher = more ERK phosphorylation (less pathway inhibition)
Conditions: drug treatment time 24 h, doxycycline pre-induction time 24 h, vemurafenib background 0 µM
Experimental: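 pERK was measured by immunofluorescence with FLAG-negative cells excluded. Averages of 2 technical replicates.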

CCCS(=O)(=O)Nc1ccc(F)c(C(=O)c2c[nH]c3ncc(-c4ccc(Cl)cc4)cc23)c1F [Vemurafenib] + O=C(c1ccc(F)c(F)c1Nc1ccc(I)cc1F)N1CC(O)([C@@H]2CCCCN2)C1 [Cobimetinib]
pERK immunofluorescence
Conditions	drug B concentration 0 µM	drug B concentration 0.0001 µM	drug B concentration 0.0003162 µM	drug B concentration 0.001 µM	drug B concentration 0.00316228 µM	drug B concentration 0.01 µM	drug B concentration 0.0316228 µM	drug B concentration 0.1 µM	drug B concentration 0.316228 µM	drug B concentration 1 µM
drug A concentration 0 µM, doxycycline 0 ng/mL	–	0.771	0.877	0.692	0.269	0.0826	0.0415	0.0295	0.0213	0.0214
drug A concentration 0 µM, doxycycline 1000 ng/mL	–	1.26	1.36	1.23	1.11	1.03	0.769	0.29	0.0675	0.0264
drug A concentration 0.000316 µM, doxycycline 0 ng/mL	0.894	0.847	0.89	0.663	0.253	0.078	0.0417	0.0283	0.023	0.0216
drug A concentration 0.000316 µM, doxycycline 1000 ng/mL	1.23	1.24	1.3	1.22	1.11	1.06	0.763	0.322	0.073	0.0271
drug A concentration 0.001 µM, doxycycline 0 ng/mL	0.854	0.807	0.827	0.652	0.277	0.0707	0.0373	0.0262	0.0201	0.0201
drug A concentration 0.001 µM, doxycycline 1000 ng/mL	1.15	1.21	1.26	1.29	1.15	1.08	0.761	0.326	0.0778	0.0269
drug A concentration 0.00316 µM, doxycycline 0 ng/mL	0.761	0.816	0.887	0.555	0.229	0.0664	0.0382	0.0255	0.0206	0.0196
drug A concentration 0.00316 µM, doxycycline 1000 ng/mL	1.12	1.17	1.31	1.25	1.13	1.01	0.763	0.311	0.0715	0.0264
drug A concentration 0.01 µM, doxycycline 0 ng/mL	0.697	0.719	0.752	0.525	0.207	0.0636	0.0366	0.0258	0.0201	0.0203
drug A concentration 0.01 µM, doxycycline 1000 ng/mL	1.16	1.21	1.28	1.31	1.21	1.02	0.741	0.32	0.0751	0.0284
drug A concentration 0.0316 µM, doxycycline 0 ng/mL	0.485	0.57	0.578	0.357	0.142	0.0532	0.0338	0.0248	0.0205	0.0197
drug A concentration 0.0316 µM, doxycycline 1000 ng/mL	1.08	1.11	1.22	1.27	1.05	0.964	0.683	0.254	0.0677	0.0258
drug A concentration 0.1 µM, doxycycline 0 ng/mL	0.316	0.286	0.274	0.161	0.0758	0.0428	0.0306	0.0226	0.0207	0.0198
drug A concentration 0.1 µM, doxycycline 1000 ng/mL	1.2	1.18	1.31	1.21	1.12	1.05	0.766	0.294	0.0731	0.0266
drug A concentration 0.316228 µM, doxycycline 0 ng/mL	0.107	0.0916	0.1	0.0715	0.0458	0.0352	0.0271	0.0216	0.0197	0.019
drug A concentration 0.316228 µM, doxycycline 1000 ng/mL	1.17	1.21	1.26	1.25	1.15	1.08	0.736	0.279	0.069	0.0251
drug A concentration 1 µM, doxycycline 0 ng/mL	0.0542	0.0554	0.0566	0.0507	0.0389	0.0323	0.0252	0.0202	0.019	0.0186
drug A concentration 1 µM, doxycycline 1000 ng/mL	1.12	1.21	1.32	1.26	1.15	1.06	0.675	0.212	0.0608	0.0248
drug A concentration 3.16 µM, doxycycline 0 ng/mL	0.0469	0.0457	0.0485	0.044	0.038	0.0293	0.0233	0.02	0.0191	0.0188
drug A concentration 3.16 µM, doxycycline 1000 ng/mL	1.07	1.14	1.22	1.27	1.12	0.941	0.478	0.129	0.0468	0.0219
drug A concentration 10 µM, doxycycline 0 ng/mL	0.0377	0.0388	0.0357	0.0351	0.0307	0.0237	0.0219	0.0199	0.019	0.0193
drug A concentration 10 µM, doxycycline 1000 ng/mL	0.905	1.01	1.04	1.02	0.868	0.553	0.145	0.0465	0.0237	0.0194
